From ChEMBL document CHEMBL4834461, “Intracellular fluorescence competition assay for inhibitor engagement of histone deacetylase” (Bioorg Med Chem Lett, 2021)

Legend:
Histone deacetylase 1 = Histone deacetylase 1 (Homo sapiens, UniProt Q13547); assay: Inhibition of HDAC1 (unknown origin)
[1] = biological target: T1, Protein deacetylase HDAC6 (Homo sapiens, UniProt Q9UBN7); assay: Inhibition of HDAC6 (unknown origin)
T1 sequence (Q9UBN7 whole entry): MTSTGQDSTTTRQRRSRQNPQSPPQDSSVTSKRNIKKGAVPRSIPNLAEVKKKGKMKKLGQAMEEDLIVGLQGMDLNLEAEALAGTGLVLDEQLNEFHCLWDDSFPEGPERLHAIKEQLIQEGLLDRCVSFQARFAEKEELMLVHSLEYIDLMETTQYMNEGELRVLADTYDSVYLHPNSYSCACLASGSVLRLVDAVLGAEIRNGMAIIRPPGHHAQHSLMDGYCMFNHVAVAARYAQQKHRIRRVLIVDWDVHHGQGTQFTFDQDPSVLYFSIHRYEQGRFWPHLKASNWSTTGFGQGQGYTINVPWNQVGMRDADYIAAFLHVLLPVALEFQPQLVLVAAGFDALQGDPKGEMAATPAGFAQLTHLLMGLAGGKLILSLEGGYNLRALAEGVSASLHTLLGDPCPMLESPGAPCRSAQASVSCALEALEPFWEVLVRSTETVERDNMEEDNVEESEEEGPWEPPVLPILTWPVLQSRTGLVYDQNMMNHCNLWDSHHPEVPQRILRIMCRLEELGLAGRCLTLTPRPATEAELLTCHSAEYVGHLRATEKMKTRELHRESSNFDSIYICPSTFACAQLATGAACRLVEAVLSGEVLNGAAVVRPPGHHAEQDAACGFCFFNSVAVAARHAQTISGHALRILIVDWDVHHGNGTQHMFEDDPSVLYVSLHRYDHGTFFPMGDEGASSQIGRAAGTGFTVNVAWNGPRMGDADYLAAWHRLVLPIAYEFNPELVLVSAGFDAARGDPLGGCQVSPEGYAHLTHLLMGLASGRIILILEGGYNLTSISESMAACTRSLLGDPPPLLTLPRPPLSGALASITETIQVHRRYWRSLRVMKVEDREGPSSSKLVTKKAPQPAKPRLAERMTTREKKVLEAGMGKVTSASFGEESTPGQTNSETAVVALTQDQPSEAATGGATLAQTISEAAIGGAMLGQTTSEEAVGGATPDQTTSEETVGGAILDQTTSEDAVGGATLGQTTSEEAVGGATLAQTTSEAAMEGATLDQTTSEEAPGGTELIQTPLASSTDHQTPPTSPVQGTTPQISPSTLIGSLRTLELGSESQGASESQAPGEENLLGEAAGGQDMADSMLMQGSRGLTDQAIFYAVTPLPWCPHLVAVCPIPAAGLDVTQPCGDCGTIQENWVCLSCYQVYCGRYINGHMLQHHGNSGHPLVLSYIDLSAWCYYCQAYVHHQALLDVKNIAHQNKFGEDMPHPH

Sequence of Histone deacetylase 1 (Q13547 whole entry): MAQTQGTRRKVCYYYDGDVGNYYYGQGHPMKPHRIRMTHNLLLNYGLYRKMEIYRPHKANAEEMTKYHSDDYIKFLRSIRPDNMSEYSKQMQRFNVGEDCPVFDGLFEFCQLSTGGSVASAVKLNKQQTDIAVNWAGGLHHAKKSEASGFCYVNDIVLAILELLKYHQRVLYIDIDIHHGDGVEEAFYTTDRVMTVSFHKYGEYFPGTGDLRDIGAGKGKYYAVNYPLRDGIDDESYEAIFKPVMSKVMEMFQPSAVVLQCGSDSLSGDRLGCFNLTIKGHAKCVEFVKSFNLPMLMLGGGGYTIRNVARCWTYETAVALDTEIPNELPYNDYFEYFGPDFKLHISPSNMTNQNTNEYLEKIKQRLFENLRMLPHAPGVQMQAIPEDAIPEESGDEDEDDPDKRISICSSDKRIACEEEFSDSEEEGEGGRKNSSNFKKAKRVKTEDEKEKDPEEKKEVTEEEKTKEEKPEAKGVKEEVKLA

SMILES	IC50 (Histone deacetylase 1) [nM]	IC50 [1] [nM]
CCCNc1ccc2c3c(cccc13)C(=O)N(CCCC(=O)NO)C2=O	9500	1120
O=C(CCCCCN1C(=O)c2cccc3c(OCc4ccc(C(F)(F)F)cc4)ccc(c23)C1=O)NO	280	12
